# Data taken from PubChem BioAssay (NCI).
#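 Results reflect a 48-hour exposure of cells in 96-well plates to compound at five concentrations. TGI marks complete inhibition of growth.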
# Legend:
# Assay in all cases: inhibition of tumour cell growth, NCI panel, 48 h
# LOX IMVI melanoma = system: LOX IMVI melanoma
# NCI-H460 lung = system: NCI-H460 lung
# MDA-N = system: MDA-N
# HOP-92 NSCLC = system: HOP-92 NSCLC
# HL-60(TB) leukemia = system: HL-60(TB) leukemia
# MOLT-4 leukemia = system: MOLT-4 leukemia
# RPMI-8226 leukemia = system: RPMI-8226 leukemia
# SF-539 CNS = system: SF-539 CNS
# RXF 393 renal = system: RXF 393 renal
# COLO 205 colon = system: COLO 205 colon
# DU-145 prostate = system: DU-145 prostate
# MCF7 breast = system: MCF7 breast
# UACC-62 melanoma = system: UACC-62 melanoma
# A549 NSCLC = system: A549 NSCLC
# SK-MEL-2 melanoma = system: SK-MEL-2 melanoma
# UO-31 renal = system: UO-31 renal
# SN12C renal = system: SN12C renal
# NCI/ADR-RES ovarian = system: NCI/ADR-RES ovarian
# CCRF-CEM leukemia = system: CCRF-CEM leukemia
# T-47D breast = system: T-47D breast
# SF-295 CNS = system: SF-295 CNS
# K-562 leukemia = system: K-562 leukemia
# NCI-H226 lung = system: NCI-H226 lung
# UACC-257 melanoma = system: UACC-257 melanoma
# U251 CNS = system: U251 CNS
# SNB-75 CNS = system: SNB-75 CNS
# SNB-19 CNS = system: SNB-19 CNS
# PC-3 prostate = system: PC-3 prostate
# HT29 colon = system: HT29 colon
# SK-MEL-28 melanoma = system: SK-MEL-28 melanoma
# M14 melanoma = system: M14 melanoma
# OVCAR-4 ovarian = system: OVCAR-4 ovarian
# MDA-MB-435 = system: MDA-MB-435
# MALME-3M melanoma = system: MALME-3M melanoma
# TK-10 renal = system: TK-10 renal
# HCT-15 colon = system: HCT-15 colon
# OVCAR-8 ovarian = system: OVCAR-8 ovarian
# SW-620 colon = system: SW-620 colon
# 786-0 renal = system: 786-0 renal
# NCI-H23 lung = system: NCI-H23 lung
# CAKI-1 renal = system: CAKI-1 renal
# SF-268 CNS = system: SF-268 CNS
# NCI-H522 lung = system: NCI-H522 lung
# SK-MEL-5 melanoma = system: SK-MEL-5 melanoma
# BT-549 breast = system: BT-549 breast
# A498 renal = system: A498 renal
# IGROV1 ovarian = system: IGROV1 ovarian
# HOP-62 NSCLC = system: HOP-62 NSCLC
# HCT-116 colon = system: HCT-116 colon
# HCC-2998 colon = system: HCC-2998 colon
# ACHN renal = system: ACHN renal
# OVCAR-5 ovarian = system: OVCAR-5 ovarian
# SK-OV-3 ovarian = system: SK-OV-3 ovarian
# MDA-MB-231 breast = system: MDA-MB-231 breast
# OVCAR-3 ovarian = system: OVCAR-3 ovarian
# EKVX NSCLC = system: EKVX NSCLC
# HS 578T breast = system: HS 578T breast
# KM12 colon = system: KM12 colon
structure (smiles),measurement,setting,value
COC(=O)Cc1cc2c(cc1C(=O)c1ccc(N)cc1)OCO2,TGI,LOX IMVI melanoma,> 100 µM
same,TGI,NCI-H460 lung,> 100 µM
same,TGI,MDA-N,1.43 µM
same,TGI,HOP-92 NSCLC,61 µM
same,TGI,HL-60(TB) leukemia,> 26.2 µM
same,TGI,MOLT-4 leukemia,33.8 µM
same,TGI,RPMI-8226 leukemia,6.08 µM
same,TGI,SF-539 CNS,> 27.2 µM
same,TGI,RXF 393 renal,> 23.9 µM
same,TGI,COLO 205 colon,10 µM
same,TGI,DU-145 prostate,> 39.1 µM
same,TGI,MCF7 breast,> 100 µM
same,TGI,UACC-62 melanoma,> 55 µM
same,TGI,A549 NSCLC,> 77.8 µM
same,TGI,SK-MEL-2 melanoma,5.36 µM
same,TGI,UO-31 renal,> 100 µM
same,TGI,SN12C renal,> 100 µM
same,TGI,NCI/ADR-RES ovarian,15.3 µM
same,TGI,CCRF-CEM leukemia,8 µM
same,TGI,T-47D breast,> 100 µM
same,TGI,SF-295 CNS,5.33 µM
same,TGI,K-562 leukemia,> 100 µM
same,TGI,NCI-H226 lung,> 100 µM
same,TGI,UACC-257 melanoma,> 100 µM
same,TGI,U251 CNS,> 100 µM
same,TGI,SNB-75 CNS,5.84 µM
same,TGI,SNB-19 CNS,> 82.8 µM
same,TGI,PC-3 prostate,> 27.2 µM
same,TGI,HT29 colon,3.99 µM
same,TGI,SK-MEL-28 melanoma,> 100 µM
same,TGI,M14 melanoma,> 100 µM
same,TGI,OVCAR-4 ovarian,> 100 µM
same,TGI,MDA-MB-435,0.667 µM
same,TGI,MALME-3M melanoma,> 100 µM
same,TGI,TK-10 renal,> 100 µM
same,TGI,HCT-15 colon,> 37.7 µM
same,TGI,OVCAR-8 ovarian,> 34.5 µM
same,TGI,SW-620 colon,> 100 µM
same,TGI,786-0 renal,> 100 µM
same,TGI,NCI-H23 lung,> 100 µM
same,TGI,CAKI-1 renal,> 100 µM
same,TGI,SF-268 CNS,> 30.7 µM
same,TGI,NCI-H522 lung,1.01 µM
same,TGI,SK-MEL-5 melanoma,4.49 µM
same,TGI,BT-549 breast,> 20.3 µM
same,TGI,A498 renal,> 27.4 µM
same,TGI,IGROV1 ovarian,13 µM
same,TGI,HOP-62 NSCLC,> 100 µM
same,TGI,HCT-116 colon,> 45.9 µM
same,TGI,HCC-2998 colon,3.58 µM
same,TGI,ACHN renal,> 100 µM
same,TGI,OVCAR-5 ovarian,83.3 µM
same,TGI,SK-OV-3 ovarian,> 29.2 µM
same,TGI,MDA-MB-231 breast,> 30.9 µM
same,TGI,OVCAR-3 ovarian,6.99 µM
same,TGI,EKVX NSCLC,> 100 µM
same,TGI,HS 578T breast,> 25.4 µM
same,TGI,KM12 colon,> 100 µM
COc1cc(C(c2c(O)c3ccccc3oc2=O)c2c(O)c3ccccc3oc2=O)ccc1O,TGI,LOX IMVI melanoma,65.1 µM
same,TGI,NCI-H460 lung,44.6 µM
same,TGI,MDA-N,44.8 µM
same,TGI,HOP-92 NSCLC,33.8 µM
same,TGI,HL-60(TB) leukemia,57.9 µM
same,TGI,MOLT-4 leukemia,62.4 µM
same,TGI,RPMI-8226 leukemia,> 100 µM
same,TGI,SF-539 CNS,53.9 µM
same,TGI,RXF 393 renal,33.7 µM
same,TGI,COLO 205 colon,31.7 µM
same,TGI,DU-145 prostate,52.6 µM
same,TGI,MCF7 breast,38.2 µM
same,TGI,UACC-62 melanoma,35.4 µM
same,TGI,A549 NSCLC,> 100 µM
same,TGI,SK-MEL-2 melanoma,58.5 µM
same,TGI,UO-31 renal,65.6 µM
same,TGI,SN12C renal,42 µM
same,TGI,NCI/ADR-RES ovarian,> 100 µM
same,TGI,CCRF-CEM leukemia,89.6 µM
same,TGI,T-47D breast,33.9 µM
same,TGI,SF-295 CNS,> 100 µM
same,TGI,K-562 leukemia,> 100 µM
same,TGI,NCI-H226 lung,> 100 µM
same,TGI,UACC-257 melanoma,37.1 µM
same,TGI,U251 CNS,58.4 µM
same,TGI,SNB-75 CNS,66.1 µM
same,TGI,SNB-19 CNS,92 µM
same,TGI,PC-3 prostate,94.6 µM
same,TGI,HT29 colon,40.8 µM
same,TGI,SK-MEL-28 melanoma,36.5 µM
same,TGI,M14 melanoma,34.7 µM
same,TGI,OVCAR-4 ovarian,> 100 µM
same,TGI,MDA-MB-435,> 100 µM
same,TGI,MALME-3M melanoma,38 µM
same,TGI,TK-10 renal,46.1 µM
same,TGI,HCT-15 colon,36 µM
same,TGI,OVCAR-8 ovarian,> 100 µM
same,TGI,SW-620 colon,63.1 µM
same,TGI,786-0 renal,56 µM
same,TGI,NCI-H23 lung,> 100 µM
same,TGI,CAKI-1 renal,36.5 µM
same,TGI,SF-268 CNS,45.4 µM
same,TGI,NCI-H522 lung,43.2 µM
same,TGI,SK-MEL-5 melanoma,30.3 µM
same,TGI,BT-549 breast,38.9 µM
same,TGI,A498 renal,> 100 µM
same,TGI,IGROV1 ovarian,27.2 µM
same,TGI,HOP-62 NSCLC,> 100 µM
same,TGI,HCT-116 colon,> 100 µM
same,TGI,HCC-2998 colon,33.9 µM
same,TGI,ACHN renal,40.2 µM
same,TGI,OVCAR-5 ovarian,41.3 µM
same,TGI,SK-OV-3 ovarian,> 100 µM
same,TGI,MDA-MB-231 breast,35.9 µM
same,TGI,OVCAR-3 ovarian,34.6 µM
same,TGI,EKVX NSCLC,80.9 µM
same,TGI,HS 578T breast,> 100 µM
same,TGI,KM12 colon,87.1 µM
